Assay results taken from publication PMC6193120, “Substrate Specificity Analysis of Dihydrofolate/Dihydromethanopterin Reductase Homologs in Methylotrophic α-Proteobacteria” (Frontiers in Microbiology, 2018).

T1: M. extorquens AM1 DmrA-H4 (Methylorubrum extorquens, UniProt C5B2R8)
T1 sequence (C5B2R8 1-135): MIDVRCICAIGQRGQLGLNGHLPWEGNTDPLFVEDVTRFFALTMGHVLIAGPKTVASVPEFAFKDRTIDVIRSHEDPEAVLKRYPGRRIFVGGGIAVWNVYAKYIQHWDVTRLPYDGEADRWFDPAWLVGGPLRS

B1: H6-DfrA (Methylorubrum extorquens) (protein)
chain: MAQPRISLVAAIARNGVIGRDNSLAWRLSSDLKRFKALTMGKPILMGRKTWDSIGRPLPGRRSLVITRDRSLALSDVTVVHDWDEALAAAGDDELMVVGGAEIYRLALPHADRLHLTEVDAAPEGDAYFPPFDRSLFRETLREAHGPGERDEFAFQFVDLERLGSR
B2: H6-DfrB (Methylorubrum extorquens) (protein)
chain: MDVRLIAAIGRRGQLGLEGDMPWGRSFPDDLRRFRELTAGGIVLVGWRTWPTVERLQGTHGRRFVVDDVKLPPTGMLVRLQEPDASGTRDRPVWIAGGAKTYARYARFVDEFVVRRVPYDGPADTWMPDLLGTPEADRTDGPYTGRSPTDKQWRPGCRRLRDR
notes: megaplasmid-encoded

How the values were obtained:
[1] = test system: T2, Hni-DAGK-H6; experiment: NADPH oxidation at […] nm, anaerobic; assay type: biochemical, Hyphomicrobium nitrativorans; settings: 0.1 mM NADPH, pH 5.3, sodium acetate; H2SPT from partially oxidized Methanosarcina thermophila H4SPT fraction; read-out: KM(app)
T2 construct: gene dmrA

[2] = molecular target: T1, M. extorquens AM1 DmrA-H4; experiment: NADPH oxidation at […] nm, anaerobic; assay type: biochemical; settings: 0.1 mM NADPH, pH 5.3, sodium acetate; H2SPT from partially oxidized Methanosarcina thermophila H4SPT fraction; read-out: KM(app)
[3] = test system: T3, Mno-DAGK-H6; experiment: NADPH oxidation at […] nm, anaerobic; assay type: biochemical, Methylobacterium nodulans; settings: 0.1 mM NADPH, pH 5.3, sodium acetate; H2SPT from partially oxidized Methanosarcina thermophila H4SPT fraction; read-out: KM(app)
T3 construct: gene dmrA

[4] = substrate: Nc1nc2c(c(=O)[nH]1)N=C(CNc1ccc(C(=O)N[C@@H](CCC(=O)O)C(=O)O)cc1)CN2; experiment: purified protein; assay type: biochemical, Methylorubrum extorquens; settings: 100 μM NADPH, pH 6.8, room temperature

Molecule | Km [1] | Km [2] | Km [3] | Km [4]
dihydrosarcinapterin | 102 ± 73 µM | 193 ± 71 µM | 695 ± 176 µM | –
B1 | – | – | – | 14 ± 3.0 µM
B2 | – | – | – | 18 ± 8.9 µM
